{
  "source": "patent US11160875B2",
  "about": "“Therapeutic nanofiber hydrogels for local treatment of brain-related diseases” (THE JOHNS HOPKINS UNIVERSITY, priority 2015, dated 2021)",
  "key": {"[1]": {"tested_on": "U87 human glioblastoma cells", "experiment": "Cytotoxicity dose-response, SRB assay, U87", "assay_type": "cell-based", "settings": "U87, 48 h incubation", "method": "(§1) FIGS. 16A-16B depict the cytotoxicity evaluation of PTX-buSS-FFFRGDR (SEQ ID NO: 1), PTX-buSS-VVVRGDR (SEQ ID NO: 2), and C16-FFFRGDR (SEQ ID NO: 1) against U87 human glioblastoma cells (A) and 965 human primary brain tumor cells (B). Cells were incubated with the PTX or conjugates for 48 h (U87) or 72 h (965) and cell viability was determined by SRB assay. Data are given as mean±s.d. (n=3).\n(§2) U87 human glioblastoma cells were provided by Prof. Denis Wirtz's lab (Department of Chemical and Biomolecular Engineering, Johns Hopkins University). Primary human brain cancer cell line 965 was provided by Prof. Alfredo Quinones-Hinojosa of the Johns Hopkins Medical School. All cell lines were cultured according to providers' protocols. U87 human glioblastoma cells were grown in DMEM with 10% FBS and 1% antibiotics. Primary human brain cancer cell line 965 was grown in DEME/F12 with 2% Neuroplex, 1% antibiotics, 20 ng/mL hEGF and 20 ng/mL hFGF.\n(§3) The cytotoxicity assays of PTX-FFFRGDR (SEQ ID NO: 1), PTX-VVVRGDR (SEQ ID NO: 2), C16-FFFRGDR (SEQ ID NO: 1) were determined using a dose-response study. A 96-well plate was seeded with cell sat a density of 5×10^3 cells/well and incubated at 37° C. for 24 h. The cells were then treated with varying concentrations of paclitaxel or conjugate in cell medium and incubated for a further 48 h (U87) or 72 h (primary cell lines). Cell viability was determined by sulforhodamine-B (SRB, Sigma Aldrich) assay according to the manufacturer's protocol. The data was fitted using the Hill equation function within the Igor Pro program and used to obtain the IC50 value.\n(§4) The in vitro cytotoxicity of PTX-buSS-FFFRGDR (SEQ ID NO: 1) was assessed an compared to that of free PTX, PTX-buSS-VVVRGDR (SEQ ID NO: 2) and C16-FFFRGDR (SEQ ID NO: 1) against two brain tumor cell lines, including U87 human glioblastoma cell line and 965 primary human brain tumor cell line (FIG. 16). Cells were incubated for 48 h with varying drug concentrations and cell viability was determined using sulforhodamine B (SRB) assay. […]"}, "[2]": {"tested_on": "965 human primary brain tumor cells", "experiment": "Cytotoxicity dose-response, SRB assay, 965", "assay_type": "cell-based", "settings": "965 primary cells, 72 h incubation per FIG. 16 legend", "method": "as §1, §2, §3, §4"}, "[3]": {"experiment": "Paclitaxel release study in PBS buffer with or without GSH", "assay_type": "physicochemical", "settings": "37° C., 50 μM, presence or absence of 10 mM GSH", "method": "FIGS. 15A-15D illustrate fluorescence measurements to determine the CMC value of PTX-buSS-FFFRGDR (SEQ ID NO: 1) (A) and PTX-buSS-VVVRGDR (SEQ ID NO: 2) (B) based on Nile Red encapsulation within the assembled nanostructures. Representative CD spectra (solid lines) and UV-vis spectra (dash lines) of 200 μM PTX-buSS-FFFRGDR (SEQ ID NO: 1), 200 μM PTX-buSS-VVVRGDR (SEQ ID NO: 2) and 200 μM. C16-FFFRGDR (SEQ ID NO: 1) (C). Paclitaxel release study of PTX-buSS-FFFRGDR (SEQ ID NO: 1) and PTX-buSS-VVVRGDR (SEQ ID NO: 2) in PBS buffer at 37° C. at 50 μM. Solutions were incubated in the presence or absence of 10 mM GSH. Data are given as mean±s.d. (n=3).\nSince the release of the active compound is critical and tunable by altering nanofilaments morphologies, experiments to determine PTX release were carried out in PBS buffer at 37° C. in the presence or absence of 10 mM GSH (FIG. 15D)."}, "[4]": {"tested_on": "U87 human glioblastoma cells", "experiment": "Hydrogel drug release and cytotoxicity, live/dead cell staining", "assay_type": "cell-based", "settings": "U87, 24 h incubation with hydrogel, near-gel region 1 and peripheral region 2", "method": "FIGS. 17A-17F show the in vitro drug release and cytotoxicity study of PTX-buSS-FFFRGDR (SEQ ID NO: 1), PTX-buSS-VVVRGDR (SEQ ID NO: 2), and C16-FFFRGDR (SEQ ID NO: 1) hydrogels against U87 human glioblastoma cells. Live/dead assay cell images after 24 h of incubation with blank culture media (A and D), PTX-buSS-FFFRGDR (SEQ ID NO: 1) (B and E), or C16-FFFRGDR (SEQ ID NO: 1) (C and F).\nThe in vitro drug release and cytotoxicity of PTX-buSS-FFFRGDR (SEQ ID NO: 1) was assessed and compared to that of C16-FFFRGDR (SEQ ID NO: 1) blank hydrogel against U87 human glioblastoma cells (FIG. 17). Cells were incubated for 24 h with PTX-loaded and PTX-free hydro-gels and cell viability was determined using live/dead cell staining method. Two sections along gradient decaying radius were taken to compare cell viability after treatment with different hydrogels."}, "[5]": {"experiment": "Cumulative release of drug from CPT-HKD hydrogel", "assay_type": "physicochemical", "description": "(§5) (C) Cumulative release of drug from the hydrogel formed by CPT-HKD (1.2 wt %) over one month. […] (D) Cell viability of primary glioma cells derived from three patients treated by CPT-HKD of varying concentrations.\n(§6) CPT-HKD was incubated with primary glioma cells derived from three patients to determine cytotoxicity (FIG. 18D)."}, "[6]": {"experiment": "Hydrogel formation of CPT-HKD nanofibers in DPBS", "assay_type": "physicochemical", "description": "as §5, §6"}, "implanted tumors": {"tested_on": "implanted tumors", "experiment": "In vivo brain tumor resection model", "excerpt": "A) A cranial window (5 mm) was made at the same location of tumor implantation, and the tumor was resected with microscissors. A droplet of CPT nanofiber solution was placed in the resected area, forming hydrogels upon delivery. A methacrylate membrane was used to cover the skull defect.\nA droplet of CPT-HKD nanofiber solution was placed in the resected area, forming hydrogels upon delivery. A methacrylate membrane was used to cover the skull defect.\nUsing the in vivo brain tumor resection model described above, mice with implanted tumors were treated with resection of the tumor alone or resection and addition of CPT-HKD hydrogel and the tumor site was subjected to BLI analysis at 1 and 2 weeks post-resection.\nUsing the in vivo brain tumor resection model described above, mice with implanted tumors were treated with resection of the tumor alone or resection and addition of CPT-HKD hydrogel for 1 month. After the test period, mouse brains were removed and sectioned in 10 μm thick sections and stained using H&E methods. Tumor area was determined by stereological analysis of consecutive 10 μm thick sections. p value was calculated by Mann-Whitney U (p=0.037)."}, "[7]": {"tested_on": "primary glioma cells derived from three patients", "settings": "varying concentrations", "description": "as §5, §6"}},
  "note": "Non-standard residues stand in square brackets, D forms with d. Residues, ends and D or L forms follow the SMILES beside them. No end group written: not given here. ξ: configuration not given here. *: point of attachment. Paclitaxel(2'-OCO(CH2)3S) = CC(=O)O[C@H]1C(=O)[C@@]2(C)[C@H]([C@H](OC(=O)c3ccccc3)[C@]3(O)C[C@H](OC(=O)[C@H](OC(=O)CCCS*)[C@@H](NC(=O)c4ccccc4)c4ccccc4)C(C)=C1C3(C)C)[C@]1(OC(C)=O)CO[C@@H]1C[C@@H]2O; Palmitoyl = CCCCCCCCCCCCCCCC(=O)*; ξV = CC(C)C(N)C(=O)O",
  "data": [
    {"compound": "CC(=O)N[C@@H](CSSCCCC(=O)O[C@@H](C(=O)O[C@H]1C[C@@]2(O)[C@@H](OC(=O)c3ccccc3)[C@@H]3[C@]4(OC(C)=O)CO[C@@H]4C[C@H](O)[C@@]3(C)C(=O)[C@H](OC(C)=O)C(=C1C)C2(C)C)[C@@H](NC(=O)c1ccccc1)c1ccccc1)C(=O)N[C@@H](Cc1ccccc1)C(=O)N[C@@H](Cc1ccccc1)C(=O)N[C@@H](Cc1ccccc1)C(=O)N[C@@H](CCCNC(=N)N)C(=O)NCC(=O)N[C@@H](CC(=O)O)C(=O)N[C@@H](CCCNC(=N)N)C(=O)O", "note": "[PTX-buSS-FFFRGDR] (Ac-C(Paclitaxel(2'-OCO(CH2)3S))FFFRGDR-OH)", "values": [
      {"measurement": "in vitro cytotoxicity (cell viability)", "setting": "[1]", "value": "near-identical toxicity to free PTX"},
      {"measurement": "in vitro cytotoxicity (cell viability)", "setting": "[2]", "value": "near-identical toxicity to free PTX"}
    ]},
    {"compound": "CC(=O)N[C@@H](CSSCCCC(=O)O[C@@H](C(=O)O[C@H]1C[C@@]2(O)[C@@H](OC(=O)c3ccccc3)[C@@H]3[C@]4(OC(C)=O)CO[C@@H]4C[C@H](O)[C@@]3(C)C(=O)[C@H](OC(C)=O)C(=C1C)C2(C)C)[C@@H](NC(=O)c1ccccc1)c1ccccc1)C(=O)NCC(=O)N[C@H](C(=O)NC(C(=O)N[C@H](C(=O)N[C@@H](CCCNC(=N)N)C(=O)NCC(=O)N[C@@H](CC(=O)O)C(=O)N[C@@H](CCCNC(=N)N)C(=O)O)C(C)C)C(C)C)C(C)C", "note": "(stereo partly shown) [PTX-buSS-VVVRGDR] (Ac-C(Paclitaxel(2'-OCO(CH2)3S))GV[ξV]VRGDR-OH)", "values": [
      {"measurement": "in vitro cytotoxicity (cell viability)", "setting": "[1]", "value": "near-identical toxicity to free PTX"},
      {"measurement": "in vitro cytotoxicity (cell viability)", "setting": "[2]", "value": "near-identical toxicity to free PTX"},
      {"measurement": "PTX release rate, with GSH versus without", "setting": "[3]", "value": "faster release rates under GSH conditions"}
    ]},
    {"compound": "CCCCCCCCCCCCCCCC(=O)N[C@@H](Cc1ccccc1)C(=O)N[C@@H](Cc1ccccc1)C(=O)N[C@@H](Cc1ccccc1)C(=O)N[C@@H](CCCNC(=N)N)C(=O)NCC(=O)N[C@@H](CC(=O)O)C(=O)N[C@@H](CCCNC(=N)N)C(=O)O", "note": "[C16-FFFRGDR] (Palmitoyl-FFFRGDR-OH)", "values": [
      {"measurement": "in vitro cytotoxicity (cell viability)", "setting": "[1]", "value": "didn't show any significant toxicity"},
      {"measurement": "in vitro cytotoxicity (cell viability)", "setting": "[2]", "value": "didn't show any significant toxicity"},
      {"measurement": "cell viability by live/dead staining around the hydrogel", "setting": "[4]", "value": "non-toxicity against U87 cells in both regions"}
    ]},
    {"compound": "CPT-HKD (GVVQQHKD; also: camptothecin conjugated via buSS linker, site not given here)", "values": [
      {"measurement": "hydrogel shape retention", "setting": "[5]; after one month", "value": "retained its shape after one month"},
      {"measurement": "cumulative release of drug from the hydrogel", "setting": "[5]; hydrogel 1.2 wt %, over one month", "value": "about 15 % of total bound drug"},
      {"measurement": "concentration at which nanofibers form a hydrogel", "setting": "[6]", "value": "higher than 0.4 wt %"},
      {"measurement": "BLI signal intensity versus resection only group", "setting": "implanted tumors; 1 and 2 weeks post-resection, p=0.0076", "value": "significant lower intensity"},
      {"measurement": "difference in survival versus resection only group", "setting": "implanted tumors; Kaplan-Meier analysis, p=0.01", "value": "extension of one-week"},
      {"measurement": "tumor area versus resection only group", "setting": "implanted tumors; after 1 month of treatment, stereological analysis of 10 μm sections, p=0.037", "value": "Reduces Brain Tumor Area"},
      {"measurement": "survival (Kaplan-Meier)", "setting": "implanted tumors; resection plus hydrogel, resection only 35 days, p=0.01", "value": 41, "unit": "days"},
      {"measurement": "cytotoxicity (cell viability)", "setting": "[7]", "value": "dose dependent cytotoxicity shown in all three cell lines"}
    ]}
  ]
}
